In PMC10003159, “Transcytosable Peptide-Paclitaxel Prodrug Nanoparticle for Targeted Treatment of Triple-Negative Breast Cancer” (International Journal of Molecular Sciences, 2023):
Where a SMILES comes first, the peptide text is derived from it. Where no end group is shown, it is not given here. The star is where a group is joined. X1 = CC(=O)O[C@H]1C(=O)[C@@]2(C)[C@H]([C@H](OC(=O)c3ccccc3)[C@]3(O)C[C@H](OC(=O)[C@H](OC(=O)CCC(=O)NCCN4C(=O)CC(*)C4=O)[C@@H](NC(=O)c4ccccc4)c4ccccc4)C(C)=C1C3(C)C)[C@]1(OC(C)=O)CO[C@@H]1C[C@@H]2O

What was measured:
4T1-mCherry-Luc tumor = assay: In vivo antitumor efficacy, subcutaneous TNBC model; parameters: species or system mice; settings: tail vein every two days, 16 d, n = 7
Protocol: Healthy female BALB/c mice (18–20 g) were purchased from Shandong University Laboratory Animal Center. Mice were housed in a pathogen-free environment under conditions of 25 ± 2 °C, 50 ± 5% relative humidity, and 12-h light/dark cycles. They were provided with food and water ad libitum. All animal experiment protocols were approved by the Ethics Committee of School of Pharmaceutical Sciences, Shandong University (22017) and implemented according to the regulations of the Shandong Council on Animal Care. To establish the mice TNBC model, 1.0 × 10^6 4T1-mCherry-Luc cells were subcutaneously injected into the left forelimb armpit of mice. […] solution was injected into mice through the abdominal and reacted with 4T1-mCherry-Luc cells to produce bioluminescence. Then, the fluorescence signals were observed and counted by an IVIS Spectrum imaging system (IVIS Kinetic).
Four days after tumor cell implantation, mice were randomly divided into four groups (n = 7). Seven mice in each group, a total of twenty-eight mice were used. Then, saline, TAR peptide (10.6 mg/kg), PTX (4 mg/kg), and PTX-SM-TAR NPs (15.6 mg/kg) were injected through the tail vein every two days. Tumor size and body weight were measured every 4 d. After 16 d of treatment, mice were sacrificed and tumors were removed, weighed, and further analyzed.

EA.hy926 cells = assay: Cytotoxicity against normal cells; assay type: cell-based; settings: Figure S5, n = 3
4T1-mCherry-Luc cells = assay: Wound healing migration assay; assay type: cell-based; settings: 24 h, mean ± SEM, n = 3
Protocol: The effect of PTX-SM-TAR NPs and PTX on 4T1-mCherry-Luc cell migration was evaluated with wound-healing assay. 4T1-mCherry-Luc cells were seeded in 6-well plates at a density of 3 × 10^5 cells per well. After overnight culture, the cells were wounded linearly by a 200 µL pipette tip. […] Images of 0 and 24 h were captured by an inverted microscope.

[1] = test system: 4T1-mCherry-Luc 3D tumor spheroids; assay: Penetration in 3D tumor spheroids; assay type: cell-based; settings: 4 h incubation, LSCM, scanned at 10 μm interval
Protocol: After adding 150–200 μL of 2% agarose solution to each well, the 48-well plate was placed on the ultra-clean bench under UV irradiation for 30 min before solidification. The 4T1-mCherry-Luc cells were planted into the plate at the density of 4 × 10^4 cells per well and cultured in the incubator for one week. After the cells aggregated into spherical shapes, tumor spheroids were transferred to confocal dishes and incubated with PTX-SM-TAR/C6 NPs and coumarin-6 solution for 2 and 4 h. The tumor spheroids were washed with PBS, fixed with 4% paraformaldehyde for 30 min, and observed with LSCM.

Neuropilin 1 (NRP-1) = Neuropilin 1 (NRP-1) (UniProt O14786 22-923, The paper says only 'purified NRP-1 protein', immobilized on a CM5 chip. Species, construct and supplier are not printed. Human ectodomain (signal peptide removed, extracellular 22-856) is taken by co); assay: SPR; Biacore T200; purified NRP-1 immobilised on a CM5 chip; gradient-diluted TAR peptide flowed over; HBS-EP running buffer; settings: both partners purified
Sequence of Neuropilin 1 (NRP-1) (O14786 22-923): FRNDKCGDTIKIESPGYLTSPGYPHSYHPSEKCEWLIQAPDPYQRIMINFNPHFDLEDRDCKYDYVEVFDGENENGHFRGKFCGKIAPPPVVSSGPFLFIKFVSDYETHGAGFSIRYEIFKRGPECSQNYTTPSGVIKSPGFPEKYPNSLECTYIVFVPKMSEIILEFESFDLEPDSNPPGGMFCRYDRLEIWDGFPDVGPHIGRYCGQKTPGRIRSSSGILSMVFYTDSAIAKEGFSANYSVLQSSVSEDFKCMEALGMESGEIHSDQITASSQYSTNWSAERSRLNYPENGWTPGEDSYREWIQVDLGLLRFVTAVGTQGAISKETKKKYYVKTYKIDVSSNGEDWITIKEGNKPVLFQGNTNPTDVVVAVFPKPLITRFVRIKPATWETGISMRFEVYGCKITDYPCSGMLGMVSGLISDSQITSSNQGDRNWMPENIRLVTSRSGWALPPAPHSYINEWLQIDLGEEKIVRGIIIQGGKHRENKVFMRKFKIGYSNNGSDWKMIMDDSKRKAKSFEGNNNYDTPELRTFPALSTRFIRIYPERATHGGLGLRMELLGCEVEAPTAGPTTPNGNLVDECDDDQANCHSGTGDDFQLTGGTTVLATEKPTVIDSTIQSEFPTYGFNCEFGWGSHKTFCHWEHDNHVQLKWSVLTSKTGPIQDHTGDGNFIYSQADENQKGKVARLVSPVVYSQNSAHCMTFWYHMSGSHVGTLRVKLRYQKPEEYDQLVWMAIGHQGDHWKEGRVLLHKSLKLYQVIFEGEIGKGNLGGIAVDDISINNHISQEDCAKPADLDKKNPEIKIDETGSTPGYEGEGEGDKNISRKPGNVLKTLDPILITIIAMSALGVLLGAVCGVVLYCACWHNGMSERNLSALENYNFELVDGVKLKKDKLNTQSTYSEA

| Molecule | body weight of mice during the experiment (4T1-mCherry-Luc tumor) | toxicity to normal cells (EA.hy926 cells) | further results |
| --- | --- | --- | --- |
| CC(=O)O[C@H]1C(=O)[C@@]2(C)[C@H]([C@H](OC(=O)c3ccccc3)[C@]3(O)C[C@H](OC(=O)[C@H](O)[C@@H](NC(=O)c4ccccc4)c4ccccc4)C(C)=C1C3(C)C)[C@]1(OC(C)=O)CO[C@@H]1C[C@@H]2O [PTX, paclitaxel] | remained stable | slight toxicity to normal cells in the low-concentration | tumor inhibition rate (4T1-mCherry-Luc tumor; TAR 10.6 mg/kg, PTX 4 mg/kg, PTX-SM-TAR NPs 15.6 mg/kg, tumor weight): 28.47%; migration rate (4T1-mCherry-Luc cells; 10 nM): 32.53 ± 1.43%; migration rate (4T1-mCherry-Luc cells; 100 nM): 18.96 ± 2.76% |
| CCN(CC)c1ccc2cc(-c3nc4ccccc4s3)c(=O)oc2c1 [coumarin-6] | – | – | fluorescence distribution in tumor spheroids along Z-axis [1]: gradually disappeared after the Z-axis exceeded 60 μm |
| CRKKRRQRRRATWLPPR [TAR] | remained stable | – | – |
| CC(=O)O[C@H]1C(=O)[C@@]2(C)[C@H]([C@H](OC(=O)c3ccccc3)[C@]3(O)C[C@H](OC(=O)[C@H](OC(=O)CCC(=O)NCCN4C(=O)CC(SC[C@H](N)C(=O)N[C@@H](CCCNC(=N)N)C(=O)N[C@@H](CCCCN)C(=O)N[C@@H](CCCCN)C(=O)N[C@@H](CCCNC(=N)N)C(=O)N[C@@H](CCCNC(=N)N)C(=O)N[C@@H](CCC(N)=O)C(=O)N[C@@H](CCCNC(=N)N)C(=O)N[C@@H](CCCNC(=N)N)C(=O)N[C@@H](CCCNC(=N)N)C(=O)N[C@@H](C)C(=O)N[C@H](C(=O)N[C@@H](Cc5c[nH]c6ccccc56)C(=O)N[C@@H](CC(C)C)C(=O)N5CCC[C@H]5C(=O)N5CCC[C@H]5C(=O)N[C@@H](CCCNC(=N)N)C(=O)O)[C@@H](C)O)C4=O)[C@@H](NC(=O)c4ccccc4)c4ccccc4)C(C)=C1C3(C)C)[C@]1(OC(C)=O)CO[C@@H]1C[C@@H]2O (stereo partly shown) [PTX-SM-TAR NPs] (H-C(X1)RKKRRQRRRATWLPPR-OH) | remained stable | same trend as the PTX | – |
| CRKKRRQRRRATWLPPR (also called fused peptide TAR; bifunctional fusion peptide of TAT and A7R; source: synthetic peptide (China Peptide Co., Ltd.)) [TAR peptide] | – | – | Kd (Neuropilin 1 (NRP-1)): 34 nM |
